PMC5867665, “Targeting Multiple Effector Pathways in Pancreatic Ductal Adenocarcinoma with a G-Quadruplex-Binding Small Molecule” (Journal of Medicinal Chemistry, 2018)

What was measured:
[1] = test system: MIA PaCa-2 and PANC-1 cells; experiment: RT-qPCR validation of down-regulated genes; format: cell-based, human
Description: The RNA-seq results are consistent with the hypothesis that G4 ligands can alter gene expression when PQs are targets in individual genes.[23] Previously, global G4-motif specific changes in the transcriptome with bisquinolinium compounds in HeLa cells have been reported using microarray analysis.[48] However, our work represents the first comprehensive analysis using state-of-the-art RNA-seq methodology. […] The observed transcriptional effects of CM03 also align with the hypothesis that down-regulation of gene expression is mediated through ligand-stabilized G4s, causing for example steric hindrance and inhibition of RNA pol II in the transcription bubble (reviewed in ref ([23])). The observations that transcriptional effects are closely aligned in two PDAC cell lines, independently sequenced, gives added confidence to these conclusions.
MIA PaCa-2 (6 h = 2.5 × 10^6 and 24 h = 1.0 × 10^6 cells/well) and PANC-1 (6 h = 1.0 × 10^6 and 24 h = 0.5 × 10^6 cells/well) cell lines were seeded in 100 mm plates and incubated overnight. […] The concentration of harvested RNA was measured with a NanoDrop 2000/2000c spectrophotometer (ThermoFisher). […] The Ct values were normalized to the genomic mean of three housekeeping genes ACTB, GAPDH, and TUBB, and the fold change was determined using 2^–ΔΔCt.

[2] = test system: MIA PaCa-2 cells; experiment: RNA-seq gene expression, MIA PaCa-2; format: cell-based, human; details: for 1/2-SBSRNA4 logFC MIA PaCa-2 / A1BG logFC MIA PaCa-2 / A1BG-AS1 logFC MIA PaCa-2 / A2LD1 logFC MIA PaCa-2 / A4GALT logFC MIA PaCa-2: 300 nM gemcitabine
Description: CM03 is a potent G4 ligand, as shown by the FRET and quantitative binding experiments reported here. We therefore reasoned that the potent CM03 antiproliferative activity on PDAC cells could be mediated through a G4-targeting mechanism. To test this hypothesis, we determined whether transcriptome changes upon early CM03 treatment were correlated with G4 presence in promoters and/or gene bodies. […] The time and dose of CM03 treatment were selected to reveal initial but robust mRNA changes while minimizing chronic effects due to cell toxicity. In both cell lines, the number of genes with altered expression (as defined by >0.5 increase in Log 2 of fold change [Log2 FC], or < −0.5 decrease; false discovery rate [FDR] < 0.1) increased with duration of CM03 treatment. In PANC-1 cells 2165 genes at 6 h and 3977 genes at 24 h were seen to change, while in MIA PaCa-2 cells, 5306 genes changed at 6 h and 5477 genes at 24 h compared to untreated controls (Supporting Information, Table 1). […] To validate that the targeting of G4-containing genes is not a general feature of antiproliferative agents, we also examined the effects of the first-line therapeutic agent for PDAC, gemcitabine,[37] a potent antiproliferative DNA synthesis inhibitor whose mechanism of action is G4-independent and which remains a standard therapy option in advanced PDAC. Both cell lines were treated with a range of gemcitabine concentrations (Supporting Information, Figure 4, Table 4) for 6 or 24 h.
The PDAC cell lines PANC-1 (ATCC, catalogue no. CRL-1469) and MIA PaCa-2 (ATCC, catalogue no. CRL-142) were maintained in DMEM (ThermoFisher, catalogue no. 11965092) supplemented with 10% (v/v) heat inactivated FBS (ThermoFisher) in a humidified atmosphere containing 5% CO2 at 37 °C. Cell lines were confirmed mycoplasma free by RNA-capture ELISA, and their genotypes were certified by STR profiling.
PANC-1 (0.35 × 10^6 cells/well) and MIA PaCa-2 (1.5 × 10^6 cells/well) cell lines were seeded overnight in 60 mm plates. Next day, cells were treated with 400 nM CM03 for 6 and 24 h. For gemcitabine treatment, cells were treated for 6 and 24 h with DMSO or 30 nM, 100 nM, 300 nM, 1 μM, 3 μM, and 10 μM gemcitabine-HCL for PANC-1 cells and 30 nM, 300 nM, and 3 μM gemcitabine-HCl for MIA PaCa-2 cells. Total RNA was extracted using the Qiagen RNeasy Plus Mini Kit (ThermoFisher, catalogue no. 74134) as per the manufacturer’s instructions. RNA quality (RIN > 9.0) was checked with an Aligent 2100 bioanalyzer RNA 6000 Nano Chip, and RNA concentration was quantified using a Qubit fluorometer (ThermoFisher) and Qubit RNA HS Assay Kit (Qiagen, catalogue no. Q32852). RNA-seq libraries were then generated using the Illumina Truseq RNA HT (stranded mRNA) kit (Illumina, catalogue no. RS-122–2103) as per the manufacturer’s instructions and sequenced using an Illumina HiSeq4000.
Fastq raw sequencing files were preprocessed using cutadapt[81] to remove sequencing adapters and low quality sequencing tails (options −q 10) and then aligned to the human genome (GRCh37/hg19) using tophat2[82] and using the UCSC gtf file provided by Illumina iGenomes as an annotation file (http://support.illumina.com/sequencing/sequencing_software/igenome.html). Gene counts were calculated using htseq-count[83] and the same gtf file. Differential expression analysis was done using the R package edgeR.[84] Differentially expressed genes were estimated independently for both cell lines (MIA PaCa-2 and PANC-1) and for the different time points (6 and 24 h) and were then intersected to inspect the common genes. The sequencing data is available at the GEO public functional genomics data repository (https://www.ncbi.nlm.nih.gov/geo/) as GSE105083. Details of the putative G4 sequence (PQs) analysis are given in the Supporting Information.

In the case of `O=C1c2ccc3c4c(c(NCCN5CCCC5)cc(c24)C(=O)N1CCCN1CCOCC1)C(=O)N(CCCN1CCOCC1)C3=O` [CM03, 2,7-bis(3-morpholinopropyl)-4-((2-(pyrrolidin-1-yl)ethyl)amino)benzo[lmn][3,8]phenanthroline-1,3,6,8(2H,7H)-tetraone], the “RT-qPCR expression of a small set of PDAC-pathway genes” value ([1]; 400 nM CM03, 6 and 24 h) is reported as “transcriptionally down-regulated in both cell lines”, the “1/2-SBSRNA4 Log FC ([6h] vs [Control]) MIA PaCa-2” value ([2]; 400 nM CM03, 6 h) is reported as 0.2926 and the “A1BG Log FC ([6h] vs [Control]) MIA PaCa-2” value ([2]; 400 nM CM03, 6 h) is reported as 0.4876. For the same molecule, the “A2LD1 Log FC ([6h] vs [Control]) MIA PaCa-2” value ([2]; 400 nM CM03, 6 h) was -0.3929, the “AAAS Log FC ([6h] vs [Control]) MIA PaCa-2” value ([2]; 400 nM CM03, 6 h) was -0.00561 and the “AACS LogFC 6h MIA PaCa-2” value ([2]; 400 nM CM03, 6 h) was 0.2527. For the same molecule, the “1/2-SBSRNA4 Log FC ([24h] vs [Control]) MIA PaCa-2” value ([2]; 400 nM CM03, 24 h) was 0.1438, the “A1BG Log FC ([24h] vs [Control]) MIA PaCa-2” value ([2]; 400 nM CM03, 24 h) was -0.4265 and the “A2LD1 Log FC ([24h] vs [Control]) MIA PaCa-2” value ([2]; 400 nM CM03, 24 h) was 0.03755. The “A4GALT Log FC ([24h] vs [Control]) MIA PaCa-2” value ([2]; 400 nM CM03, 24 h) was 0.6327, the “AAAS Log FC ([24h] vs [Control]) MIA PaCa-2” value ([2]; 400 nM CM03, 24 h) was -0.483 and the “AACS LogFC 24h MIA PaCa-2” value ([2]; 400 nM CM03, 24 h) was -0.2395.

For `Nc1ccn([C@@H]2O[C@H](CO)[C@@H](O)C2(F)F)c(=O)n1` [gemcitabine, reference compound], the “RT-qPCR expression of a small set of PDAC-pathway genes” value ([1]; 400 nM gemcitabine, 6 and 24 h) was “not significantly affected”, the “1/2-SBSRNA4 logFC MIA PaCa-2” value ([2]; 6 h) was -0.2087 and the “A1BG logFC MIA PaCa-2” value ([2]; 6 h) was 0.04195. The “A1BG-AS1 logFC MIA PaCa-2” value ([2]; 6 h) was -0.914, the “A2LD1 logFC MIA PaCa-2” value ([2]; 6 h) was -0.1941 and the “A4GALT logFC MIA PaCa-2” value ([2]; 6 h) was -0.8586. For the same molecule, the “1/2-SBSRNA4 logFC MIA PaCa-2” value ([2]; 24 h) was -0.5295, the “A1BG logFC MIA PaCa-2” value ([2]; 24 h) was 0.6604 and the “A1BG-AS1 logFC MIA PaCa-2” value ([2]; 24 h) was -0.1194. For the same molecule, the “A2LD1 logFC MIA PaCa-2” value ([2]; 24 h) was -0.3751 and the “A4GALT logFC MIA PaCa-2” value ([2]; 24 h) was -0.2021.
